Peptide text beside a SMILES is read from it.
Columns and labels:
Assay type in all cases: biochemical
[1] = target: T1, HDAC1 (Homo sapiens, UniProt Q13547); assay: HDAC1 inhibition, full IC50 measurement (Reaction Biology; fluorogenic p53 peptide RHKK(Ac)AMC); details: t1/t2 replicates
T1 construct: purchased Reaction Biology Corporation (assay run by the CRO)
Experimental: (§1) The assay was performed using 50 μM fluorogenic peptide from p53 residues 379-382 [RHKK(Ac)AMC] in a base reaction buffer of 50 mM Tris-HCl at pH 8.0, 137 mM NaCl, 2.7 mM KCl, 1 mM MgCl2, and freshly added 1 mg/ml BSA and 1% DMSO. Peptides were first dissolved in DMSO and then added to the reaction mixture with the enzyme using acoustic technique, enough to reach the desired concentration for that assay point. Peptide concentrations were calculated based on mass of lyophilized peptide and its molecular weight. The substrate was then added and incubated for 1 hour at 30 °C in a sealed container. After the incubation, developer was added to stop the reaction and develop color. Kinetic measurements were then performed for 20 min with Envision with 5 min intervals (Ex/Em = 360/460 nm). The endpoint after plateau was taken for IC50 measurement.
(§2) In cases where duplicate measures are used, average data is reported in the main text or Supplementary Tables.

[2] = target: T2, HDAC2 (Homo sapiens, UniProt Q92769); assay: HDAC2 inhibition, full IC50 measurement (Reaction Biology; fluorogenic p53 peptide RHKK(Ac)AMC); details: t1
T2 construct: purchased Reaction Biology Corporation (assay run by the CRO)
Experimental: as §1, §2

[3] = target: T3, HDAC6 (Homo sapiens, UniProt Q9UBN7); assay: HDAC6 inhibition, full IC50 measurement (Reaction Biology; fluorogenic p53 peptide RHKK(Ac)AMC); details: t1
T3 construct: purchased Reaction Biology Corporation (assay run by the CRO)
T3 sequence (Q9UBN7 1-1215): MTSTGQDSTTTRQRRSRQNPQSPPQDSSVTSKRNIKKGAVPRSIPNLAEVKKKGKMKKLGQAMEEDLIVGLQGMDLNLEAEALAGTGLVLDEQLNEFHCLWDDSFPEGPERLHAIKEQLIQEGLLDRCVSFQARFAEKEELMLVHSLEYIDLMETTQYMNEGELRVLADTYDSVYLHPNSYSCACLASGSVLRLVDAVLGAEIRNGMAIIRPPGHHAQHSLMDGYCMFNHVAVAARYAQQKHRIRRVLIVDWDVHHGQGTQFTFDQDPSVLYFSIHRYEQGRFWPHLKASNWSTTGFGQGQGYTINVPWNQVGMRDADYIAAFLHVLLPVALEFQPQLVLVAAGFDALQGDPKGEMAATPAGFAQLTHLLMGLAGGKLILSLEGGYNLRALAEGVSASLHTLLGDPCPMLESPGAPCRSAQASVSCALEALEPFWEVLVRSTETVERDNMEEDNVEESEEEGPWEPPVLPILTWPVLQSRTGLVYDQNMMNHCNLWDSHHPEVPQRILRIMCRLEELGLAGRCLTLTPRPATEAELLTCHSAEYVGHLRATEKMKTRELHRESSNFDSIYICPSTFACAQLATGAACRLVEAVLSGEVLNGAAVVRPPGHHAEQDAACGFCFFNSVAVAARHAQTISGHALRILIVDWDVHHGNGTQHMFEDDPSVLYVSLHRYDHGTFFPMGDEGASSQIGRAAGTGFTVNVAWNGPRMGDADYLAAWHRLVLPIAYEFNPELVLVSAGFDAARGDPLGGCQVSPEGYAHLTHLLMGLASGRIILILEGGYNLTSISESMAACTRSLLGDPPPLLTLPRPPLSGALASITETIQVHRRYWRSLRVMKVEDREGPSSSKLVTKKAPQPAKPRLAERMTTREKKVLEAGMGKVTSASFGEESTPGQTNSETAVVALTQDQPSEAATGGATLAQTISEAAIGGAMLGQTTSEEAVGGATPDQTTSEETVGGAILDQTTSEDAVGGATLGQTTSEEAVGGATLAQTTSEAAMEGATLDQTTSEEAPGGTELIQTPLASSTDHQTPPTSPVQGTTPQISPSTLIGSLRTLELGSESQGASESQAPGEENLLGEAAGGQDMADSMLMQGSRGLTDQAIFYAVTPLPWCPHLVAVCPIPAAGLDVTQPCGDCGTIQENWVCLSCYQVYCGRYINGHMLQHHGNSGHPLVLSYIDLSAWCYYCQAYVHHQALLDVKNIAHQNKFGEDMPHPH
Experimental: as §1, §2

[4] = target: T4, HDAC3 (Homo sapiens, UniProt O15379); assay: HDAC3 inhibition, full IC50 measurement (Reaction Biology; fluorogenic p53 peptide RHKK(Ac)AMC); details: t1
T4 construct: purchased Reaction Biology Corporation (assay run by the CRO)
Experimental: as §1, §2

[5] = target: T5, HDAC8 (Homo sapiens, UniProt Q9BY41); assay: HDAC8 inhibition, full IC50 measurement (Reaction Biology; fluorogenic p53 peptide RHKK(Ac)AMC); details: t1/t2 replicates
T5 construct: purchased Reaction Biology Corporation (assay run by the CRO)
T5 sequence (Q9BY41 1-377): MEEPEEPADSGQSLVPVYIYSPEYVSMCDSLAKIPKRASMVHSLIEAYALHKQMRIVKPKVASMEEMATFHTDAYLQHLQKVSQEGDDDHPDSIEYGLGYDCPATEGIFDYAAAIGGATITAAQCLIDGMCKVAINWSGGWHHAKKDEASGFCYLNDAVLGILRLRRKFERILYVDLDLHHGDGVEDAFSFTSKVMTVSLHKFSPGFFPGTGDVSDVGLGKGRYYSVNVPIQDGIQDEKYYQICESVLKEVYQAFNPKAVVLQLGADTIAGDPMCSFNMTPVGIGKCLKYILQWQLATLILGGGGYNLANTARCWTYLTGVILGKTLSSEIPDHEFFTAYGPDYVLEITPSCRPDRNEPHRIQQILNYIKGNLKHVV
Experimental: as §1, §2

[6] = target: T2, HDAC2; assay: Initial HDAC2 IC50 estimate (BPS Biosciences HDAC fluorogenic assay kit)
Experimental: Initial IC50 values were estimated using HDAC fluorogenic assay kits from BPS Biosciences (HDAC2, HDAC4, and HDAC6) following the protocol described in the kit. All the measures were performed in duplicates or triplicates. These measurements were done either on full range of concentrations (1:10 dilution from 1 µM to 100 pM) or on two concentrations only (20 nM and 200 nM) as an estimate of the range. […] Source Data are provided as a Source Data file.

[7] = HDAC2 activity (initial activity), Supplementary Dataset 2
[8] = HDAC2 activity (initial values for HDAC2 IC50), Supp. Table 4, rough estimates, for promising hits full measurements

T4 sequence (O15379 whole entry): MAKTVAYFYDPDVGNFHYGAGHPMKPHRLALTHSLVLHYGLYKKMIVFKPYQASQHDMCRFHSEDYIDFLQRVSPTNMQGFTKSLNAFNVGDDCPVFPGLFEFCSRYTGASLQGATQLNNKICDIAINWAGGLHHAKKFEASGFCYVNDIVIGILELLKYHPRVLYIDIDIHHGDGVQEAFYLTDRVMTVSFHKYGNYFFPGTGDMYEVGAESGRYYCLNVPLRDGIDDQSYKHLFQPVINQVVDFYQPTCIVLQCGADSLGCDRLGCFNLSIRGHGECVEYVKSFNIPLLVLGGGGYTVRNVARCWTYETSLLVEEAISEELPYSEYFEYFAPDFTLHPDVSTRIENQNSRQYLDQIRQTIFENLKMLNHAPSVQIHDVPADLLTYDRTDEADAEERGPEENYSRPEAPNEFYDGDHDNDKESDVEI
T4 sequence (Q9Y618 395-489 partner limits assumed): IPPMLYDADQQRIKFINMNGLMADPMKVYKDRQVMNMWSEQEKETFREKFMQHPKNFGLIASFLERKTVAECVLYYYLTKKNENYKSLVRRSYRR
T2 sequence (Q92769 whole entry): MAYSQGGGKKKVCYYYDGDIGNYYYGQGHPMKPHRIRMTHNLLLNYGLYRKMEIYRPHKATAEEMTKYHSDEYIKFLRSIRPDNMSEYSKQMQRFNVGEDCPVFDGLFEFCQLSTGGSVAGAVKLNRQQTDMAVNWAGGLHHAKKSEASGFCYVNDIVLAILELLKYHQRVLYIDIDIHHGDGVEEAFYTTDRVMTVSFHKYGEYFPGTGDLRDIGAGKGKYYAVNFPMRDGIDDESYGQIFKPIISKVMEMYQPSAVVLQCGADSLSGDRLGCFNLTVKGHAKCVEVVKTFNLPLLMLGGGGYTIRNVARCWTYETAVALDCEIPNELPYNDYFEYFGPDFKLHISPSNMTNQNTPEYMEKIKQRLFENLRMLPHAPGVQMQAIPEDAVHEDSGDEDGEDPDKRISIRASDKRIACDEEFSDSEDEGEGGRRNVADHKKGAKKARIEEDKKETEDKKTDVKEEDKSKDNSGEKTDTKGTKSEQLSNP
T1 sequence (Q13547 whole entry): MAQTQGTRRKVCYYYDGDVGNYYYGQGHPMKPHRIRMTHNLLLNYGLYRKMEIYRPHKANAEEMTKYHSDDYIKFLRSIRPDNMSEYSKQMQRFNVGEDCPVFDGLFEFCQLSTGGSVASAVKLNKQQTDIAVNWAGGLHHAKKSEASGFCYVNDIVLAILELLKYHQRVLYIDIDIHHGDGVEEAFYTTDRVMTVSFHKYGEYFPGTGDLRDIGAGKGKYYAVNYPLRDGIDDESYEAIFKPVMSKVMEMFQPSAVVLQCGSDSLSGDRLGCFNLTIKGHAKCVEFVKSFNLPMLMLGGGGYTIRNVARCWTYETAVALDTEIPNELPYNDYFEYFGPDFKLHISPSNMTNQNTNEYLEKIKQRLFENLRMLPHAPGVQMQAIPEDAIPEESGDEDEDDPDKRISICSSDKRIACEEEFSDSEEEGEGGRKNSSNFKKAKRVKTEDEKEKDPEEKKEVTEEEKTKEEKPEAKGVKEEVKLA

SMILES: NCCCC[C@@H]1NC(=O)[C@@H]2C[C@@H](O)CN2C(=O)[C@H](CC(N)=O)NC(=O)[C@H](CCCCCS)NC(=O)CNC(=O)[C@H](Cc2c[nH]c3ccccc23)NC(=O)[C@@H](CCCCN)NC(=O)[C@H](CCC(N)=O)NC1=O [des1.1.2, SHA-Asn-Hpr-Lys-Gln-dLys-Trp-Gly] (HELM PEPTIDE1{G.[O=C([C@H](CCCCCS)N[*:1])[*:2]].N.[Hyp].K.Q.[dK].W}$PEPTIDE1,PEPTIDE1,1:R1-8:R2$$$V2.0)
- HDAC1 activity raw data (signal) ([1]; peptide conc. 1.00E-05 M): 76959
- HDAC1 activity raw data (signal) ([1]; peptide conc. 1.11E-06 M): 410794
- HDAC1 activity raw data (signal) ([1]; peptide conc. 1.23E-07 M): 886094
- HDAC1 activity raw data (signal) ([1]; peptide conc. 1.37E-08 M): 1048348
- HDAC1 activity raw data (signal) ([1]; peptide conc. 1.52E-09 M): 1178275
- HDAC1 activity raw data (signal) ([1]; peptide conc. 3.33E-06 M): 193861
- HDAC1 activity raw data (signal) ([1]; peptide conc. 3.70E-07 M): 669526
- HDAC1 activity raw data (signal) ([1]; peptide conc. 4.12E-08 M): 1039919
- HDAC1 activity raw data (signal) ([1]; peptide conc. 4.57E-09 M): 1106752
- HDAC1 activity raw data (signal) ([1]; peptide conc. 5.08E-10 M): 1177089
- HDAC2 activity raw data (signal) ([2]; Conc. 1.00E-05 M): 101836
- HDAC2 activity raw data (signal) ([2]; Conc. 1.11E-06 M): 502310
- HDAC2 activity raw data (signal) ([2]; Conc. 1.23E-07 M): 836305
- HDAC2 activity raw data (signal) ([2]; Conc. 1.37E-08 M): 962979
- HDAC2 activity raw data (signal) ([2]; Conc. 1.52E-09 M): 1015460
- HDAC2 activity raw data (signal) ([2]; Conc. 3.33E-06 M): 281419
- HDAC2 activity raw data (signal) ([2]; Conc. 3.70E-07 M): 724069
- HDAC2 activity raw data (signal) ([2]; Conc. 4.12E-08 M): 1007771
- HDAC2 activity raw data (signal) ([2]; Conc. 4.57E-09 M): 1082856
- HDAC2 activity raw data (signal) ([2]; Conc. 5.08E-10 M): 1067045
- HDAC6 activity raw data (signal) ([3]; Conc. 1.00E-05 M): 10576
- HDAC6 activity raw data (signal) ([3]; Conc. 1.11E-06 M): 35009
- HDAC6 activity raw data (signal) ([3]; Conc. 1.23E-07 M): 150676
- HDAC6 activity raw data (signal) ([3]; Conc. 1.37E-08 M): 391207
- HDAC6 activity raw data (signal) ([3]; Conc. 1.52E-09 M): 551447
- HDAC6 activity raw data (signal) ([3]; Conc. 3.33E-06 M): 16992
- HDAC6 activity raw data (signal) ([3]; Conc. 3.70E-07 M): 72135
- HDAC6 activity raw data (signal) ([3]; Conc. 4.12E-08 M): 256776
- HDAC6 activity raw data (signal) ([3]; Conc. 4.57E-09 M): 497632
- HDAC6 activity raw data (signal) ([3]; Conc. 5.08E-10 M): 597163
- HDAC3 activity raw data (signal) ([4]; Conc. 1.00E-05 M): 22366
- HDAC3 activity raw data (signal) ([4]; Conc. 1.11E-06 M): 160146
- HDAC3 activity raw data (signal) ([4]; Conc. 1.23E-07 M): 601268
- HDAC3 activity raw data (signal) ([4]; Conc. 1.37E-08 M): 1087451
- HDAC3 activity raw data (signal) ([4]; Conc. 1.52E-09 M): 1408573
- HDAC3 activity raw data (signal) ([4]; Conc. 3.33E-06 M): 60464
- HDAC3 activity raw data (signal) ([4]; Conc. 3.70E-07 M): 337153
- HDAC3 activity raw data (signal) ([4]; Conc. 4.12E-08 M): 888364
- HDAC3 activity raw data (signal) ([4]; Conc. 4.57E-09 M): 1250419
- HDAC3 activity raw data (signal) ([4]; Conc. 5.08E-10 M): 1404307
- HDAC8 activity raw data (signal) ([5]; peptide conc. 1.00E-05 M): 21213376
- HDAC8 activity raw data (signal) ([5]; peptide conc. 1.11E-06 M): 37632401
- HDAC8 activity raw data (signal) ([5]; peptide conc. 1.23E-07 M): 42211938
- HDAC8 activity raw data (signal) ([5]; peptide conc. 1.37E-08 M): 48061782
- HDAC8 activity raw data (signal) ([5]; peptide conc. 1.52E-09 M): 52470288
- HDAC8 activity raw data (signal) ([5]; peptide conc. 3.33E-06 M): 31972513
- HDAC8 activity raw data (signal) ([5]; peptide conc. 3.70E-07 M): 43240252
- HDAC8 activity raw data (signal) ([5]; peptide conc. 4.12E-08 M): 47347914
- HDAC8 activity raw data (signal) ([5]; peptide conc. 4.57E-09 M): 49471078
- HDAC8 activity raw data (signal) ([5]; peptide conc. 5.08E-10 M): 54514203

SMILES: NCCCC[C@@H]1NC(=O)[C@@H]2CCCN2C(=O)[C@H](CC(N)=O)NC(=O)[C@H](CCCCCS)NC(=O)CNC(=O)[C@H](Cc2c[nH]c3ccccc23)NC(=O)[C@@H](CCCCN)NC(=O)[C@H](CN)NC1=O [des1.1.3, SHA-Asn-Pro-Lys-Dap-dLys-Trp-Gly] (HELM PEPTIDE1{[NC[C@H](N[*:1])C(=O)[*:2]].[dK].W.G.[O=C([C@H](CCCCCS)N[*:1])[*:2]].N.P.K}$PEPTIDE1,PEPTIDE1,1:R1-8:R2$$$V2.0)
- IC50 [6, 7]: 100 nM
- IC50 [6, 8]: 10 to 100 nM

SMILES: NCCCC[C@@H]1NC(=O)[C@@H]2CCCN2C(=O)[C@H](CC(N)=O)NC(=O)[C@H](CCCCCS)NC(=O)CNC(=O)[C@H](Cc2c[nH]c3ccccc23)NC(=O)[C@@H](CCCCN)NC(=O)[C@H](CO)NC1=O [des1.1.4, SHA-Asn-Pro-Lys-Ser-dLys-Trp-Gly] (HELM PEPTIDE1{G.[O=C([C@H](CCCCCS)N[*:1])[*:2]].N.P.K.S.[dK].W}$PEPTIDE1,PEPTIDE1,1:R1-8:R2$$$V2.0)
- IC50 [6, 7]: 100 nM
- IC50 [6, 8]: 10 to 100 nM

Source: PMC8185074, “Anchor extension: a structure-guided approach to design cyclic peptides targeting enzyme active sites” (Nature Communications, 2021)
